Test results published in patent US8377905B2, “Stable crystal of 1-(2′-cyano-2′-deoxy-β-D-arabinofuranosyl)cytosine monohydrochloride” (Delta-Fly Pharma, Inc., priority 2009, dated 2013).
One block for each compound: values may come before it.

Experiments:
[1] = Stability test: change of crystal form by powder X-ray diffraction after storage; type: physicochemical; conditions: 30 days
Description: (§1) The powder X-ray diffraction data were obtained by irradiating the crystal with CuKα ray (1.541 Å) using an X-ray diffraction apparatus (trade name: PW3050, manufactured by Koninklijke Philips Electronics N.V.), and detecting the angles using a vertical goniometer. The type I and type II crystal powders were respectively spread uniformly on a glass petri dish, and an aluminum foil (or a transparent resin film, for the purpose of storage under light exposure conditions) which was appropriately perforated as vent holes therein was used as a lid, to prepare test samples. These samples were respectively stored for 30 days under four kinds of conditions such as [60° C.], [40° C./relative humidity (RH) 75%], [25° C./relative humidity (RH) 60%, light exposure 2000 lx·hr], and [25° C./relative humidity (RH) 60%, light shading], and then the samples were tested using high performance liquid chromatography (HPLC) and powder X-ray diffraction (XRD). For powder X-ray diffraction (XRD), the analysis was carried out as described above.

[2] = Stability test: content of total analogues by HPLC after storage; type: physicochemical; conditions: for Total analogues (%), amount of increase from the initial value: 30 days vs initial; for Total analogues (%), 10 days: storage 10 days; for Total analogues (%), 18 days: storage 18 days; for Total analogues (%), 30 days: storage 30 days; for Increase in the total analogues: stability test under various conditions (humidification and exposure), 30 days
Experimental: as §1, with “The” for “The powder X-ray diffraction data were obtained by irradiating the crystal with CuKα ray (1.541 Å) using an X-ray diffraction apparatus (trade name: PW3050, manufactured by Koninklijke Philips Electronics N.V.), and detecting the angles using a vertical goniometer. The”, “(XRD).” for “(XRD). For powder X-ray diffraction (XRD), the analysis was carried out as described above.”
For the HPLC analysis, 22.9 mg of the sample was dissolved in 10 mL of 0.01 mol/L hydrochloric acid, and then the content of analogues in the crystal was measured under the following conditions.
Column: Synergi Hydro-RP 80A Phenomenex (φ4.6 mm×25 cm, 4 μm); temperature 25° C.
Mobile phase: 2.05 g of potassium dihydrogen phosphate is dissolved in 3000 mL of water, and phosphoric acid is added to the solution to adjust the pH to 3.0. The mobile phase is prepared by adding 60 mL of methanol to 2940 mL of the solution liquid.
Flow rate: Approximately 1.0 mL/min
Detector: Ultraviolet absorptiometer (measurement wavelength 254 nm)
Standard Sample: • 1-(2′-cyano-2′-deoxy-β-D-arabinofuranosyl)cytosine monohydrochloride
The term “total analogues” refers to the substances detected other than 1-(2′-cyano-2′-deoxy-β-D-arabinofuranosyl)cytosine monohydrochloride), and the term “total analogues (%)” refers to the content ratio of total analogues with respect to the standard sample.

[3] = Patent Document 1, Non-Patent Documents 1 and 2; cited from earlier work
[4] = test system: human or mouse tumor cells; conditions: Patent Document 1, Non-Patent Documents 1 and 2; cited from earlier work
[5] = Heating of the crystal at 80° C. for 2 hours, crystal form by melting point and powder X-ray diffraction; type: physicochemical; conditions: heated at 80° C. for 2 hours
[6] = 40° C./75% RH, listed as II, monohydrochloride
[7] = 25° C./60% RH/2000 lx, listed as II, monohydrochloride
[8] = 25° C./60% RH/Light shading, listed as II, monohydrochloride
[9] = 60° C., listed as II, monohydrochloride
[10] = 40° C./75% RH, listed as I, monohydrochloride
[11] = 25° C./60% RH/2000 lx, listed as I, monohydrochloride
[12] = 25° C./60% RH/Light shading, listed as I, monohydrochloride
[13] = 60° C., listed as I, monohydrochloride

Change of crystal form from the initial value ([1]; 25° C./60% RH/2000 lx): No change
Change of crystal form from the initial value [1, 6]: Changed (II → I)
Change of crystal form from the initial value ([1]; 40° C./75% RH, monohydrochloride): converted to the type I crystal
Total analogues (%), amount of increase from the initial value [2, 7]: 0.32%
Total analogues (%), initial [2, 7]: 0.06%
Total analogues (%), 10 days [2, 7]: 0.15%
Total analogues (%), 18 days [2, 7]: 0.23%
Total analogues (%), 30 days [2, 7]: 0.38%
Total analogues (%), amount of increase from the initial value [2, 8]: 0.03%
Total analogues (%), initial [2, 8]: 0.06%
Total analogues (%), 10 days [2, 8]: 0.06%
Total analogues (%), 18 days [2, 8]: 0.07%
Total analogues (%), 30 days [2, 8]: 0.09%
Total analogues (%), amount of increase from the initial value [2, 6]: 0.10%
Total analogues (%), initial [2, 6]: 0.06%
Total analogues (%), 10 days [2, 6]: 0.06%
Total analogues (%), 18 days [2, 6]: 0.08%
Total analogues (%), 30 days [2, 6]: 0.16%
Total analogues (%), amount of increase from the initial value [2, 9]: 0.01%
Total analogues (%), initial [2, 9]: 0.06%
Total analogues (%), 30 days ([2]; 60° C.): 0.07%
Increase in the total analogues [2]: not recognized
SMILES: Cl.N#CC1C(O)[C@@H](CO)O[C@H]1n1ccc(N)nc1=O (stereo partly drawn) [type II crystal, 1-(2′-cyano-2′-deoxy-β-D-arabinofuranosyl)cytosine monohydrochloride]

SMILES: Cl.N#CC1C(O)[C@@H](CO)O[C@H]1n1ccc(N)nc1=O (stereo partly drawn) [compound (1), 1-(2′-cyano-2′-deoxy-β-D-arabinofuranosyl)cytosine monohydrochloride]
Anti-tumor activity in vivo [3]: excellent anti-tumor activity
In vitro suppressive effect for proliferation of tumor cells [4]: suppressive effect for proliferation

Change of crystal form on heating [5]: converted to the type I crystal
SMILES: Cl.N#CC1C(O)[C@@H](CO)O[C@H]1n1ccc(N)nc1=O (stereo partly drawn) [type III crystal, 1-(2′-cyano-2′-deoxy-β-D-arabinofuranosyl)cytosine monohydrochloride]

Change of crystal form from the initial value ([1]; 25° C./60% RH/2000 lx): No change
Change of crystal form from the initial value ([1]; 25° C./60% RH/Light shading): No change
Change of crystal form from the initial value [1, 10]: No change
Change of crystal form from the initial value ([1]; 60° C.): No change
Total analogues (%), amount of increase from the initial value [2, 11]: 0.06%
Total analogues (%), initial [2, 11]: 0.07%
Total analogues (%), 10 days [2, 11]: 0.09%
Total analogues (%), 18 days [2, 11]: 0.09%
Total analogues (%), 30 days [2, 11]: 0.13%
Total analogues (%), amount of increase from the initial value [2, 12]: 0.00%
Total analogues (%), initial [2, 12]: 0.07%
Total analogues (%), 10 days [2, 12]: 0.07%
Total analogues (%), 18 days [2, 12]: 0.06%
Total analogues (%), 30 days [2, 12]: 0.07%
Total analogues (%), amount of increase from the initial value [2, 10]: −0.02%
Total analogues (%), initial [2, 10]: 0.07%
Total analogues (%), 10 days [2, 10]: 0.07%
Total analogues (%), 18 days [2, 10]: 0.06%
Total analogues (%), 30 days [2, 10]: 0.05%
Total analogues (%), amount of increase from the initial value [2, 13]: 0.00%
Total analogues (%), initial [2, 13]: 0.07%
Total analogues (%), 10 days ([2]; 60° C.): 0.06%
Total analogues (%), 18 days ([2]; 60° C.): 0.07%
Total analogues (%), 30 days ([2]; 60° C.): 0.07%
Increase in the total analogues [2]: not recognized
SMILES: Cl.N#C[C@H]1[C@H](O)[C@@H](CO)O[C@H]1n1ccc(N)nc1=O [type I crystal, 1-(2′-cyano-2′-deoxy-β-D-arabinofuranosyl)cytosine monohydrochloride]
Stability of the crystal form (overall conclusion) ([2]; conclusion from the stability test and crystal form conversions): superior stability as compared with the type II crystal or the type III crystal
